Assay results reported in patent publication US20260042731A1, “(2,4-DICHLOROPHENOXY)ACETIC ACID ANALOGS” (CORTEVA AGRISCIENCE LLC, priority 2022, published 2026).
Read-outs that look alike come from different tables or passages of the source.

Key:
[1] = test system: glyphosate resistant Conyza canadensis (L.) (ERICA), horseweed; experiment: Postemergence herbicide evaluation, growth of Conyza canadensis (ERICA); format: in vivo; conditions: Erigeron canadensis, post-emergence, percent reduction in plant size vs untreated control, read-out: Ave. ERICA; for pest or weed control at 280 g/ha: 280 g ae/ha; for pest or weed control at 560 g/ha: 560 g ae/ha
[2] = test system: Abutilon theophrasti (ABUTH), velvetleaf; experiment: Postemergence herbicide evaluation, growth of Abutilon theophrasti (ABUTH); format: in vivo; conditions: Abutilon theophrasti, post-emergence, percent reduction in plant size vs untreated control, read-out: AVE. ABUTH; for pest or weed control at 280 g/ha: 280 g ae/ha; for pest or weed control at 560 g/ha: 560 g ae/ha
[3] = test system: Chenopodium album (CHEAL), common lambsquarters; experiment: Postemergence herbicide evaluation, growth of Chenopodium album (CHEAL); format: in vivo; conditions: Chenopodium album, post-emergence, percent reduction in plant size vs untreated control, read-out: Ave. CHEAL; for pest or weed control at 280 g/ha: 280 g ae/ha; for pest or weed control at 560 g/ha: 560 g ae/ha
[4] = test system: Amaranthus rudis (AMATA), tall water hemp; experiment: Postemergence herbicide evaluation, growth of Amaranthus rudis (AMATA); format: in vivo; conditions: Amaranthus tuberculatus, post-emergence, percent reduction in plant size vs untreated control, read-out: Ave. AMATA; for pest or weed control at 280 g/ha: 280 g ae/ha; for pest or weed control at 560 g/ha: 560 g ae/ha
[5] = Volatility of compounds measured by thermogravimetric analysis (TGA); format: physicochemical
[6] = test system: weeds ABUTH, AMATA, AMBEL, CHEAL, ERICA; experiment: Postemergence herbicide evaluation, overall average % weed control across ABUTH, AMATA, AMBEL, CHEAL and ERICA; format: in vivo; conditions: post-emergence, average over five weeds, read-out: Overall Ave % Weed Control; for pest or weed control at 280 g/ha: 280 g ae/ha; for pest or weed control at 560 g/ha: 560 g ae/ha
[7] = test system: Ambrosia artemisiifolia (AMBEL), common ragweed; experiment: Postemergence herbicide evaluation, growth of Ambrosia artemisiifolia (AMBEL); format: in vivo; conditions: Ambrosia artemisiifolia, post-emergence, percent reduction in plant size vs untreated control, read-out: AVE. AMBEL; for pest or weed control at 280 g/ha: 280 g ae/ha; for pest or weed control at 560 g/ha: 560 g ae/ha

Compound	pest or weed control at 280 g/ha ([1]; 168 h, 7 DAA)	pest or weed control at 560 g/ha ([1]; 168 h, 7 DAA)	pest or weed control at 280 g/ha ([1]; 336 h, 14 DAA)	pest or weed control at 560 g/ha ([1]; 336 h, 14 DAA)	pest or weed control at 280 g/ha ([1]; 504 h, 21 DAA)	pest or weed control at 560 g/ha ([1]; 504 h, 21 DAA)	pest or weed control at 280 g/ha ([2]; 168 h, 7 DAA)	pest or weed control at 560 g/ha ([2]; 168 h, 7 DAA)	pest or weed control at 280 g/ha ([2]; 336 h, 14 DAA)	pest or weed control at 560 g/ha ([2]; 336 h, 14 DAA)	pest or weed control at 280 g/ha ([2]; 504 h, 21 DAA)	pest or weed control at 560 g/ha ([2]; 504 h, 21 DAA)	pest or weed control at 280 g/ha ([3]; 168 h, 7 DAA)	pest or weed control at 560 g/ha ([3]; 168 h, 7 DAA)	pest or weed control at 280 g/ha ([3]; 336 h, 14 DAA)	pest or weed control at 560 g/ha ([3]; 336 h, 14 DAA)	pest or weed control at 280 g/ha ([3]; 504 h, 21 DAA)	pest or weed control at 560 g/ha ([3]; 504 h, 21 DAA)	pest or weed control at 280 g/ha ([4]; 168 h, 7 DAA)	pest or weed control at 560 g/ha ([4]; 168 h, 7 DAA)	other results
COc1ccc(CONC(=O)COc2ccc(Cl)cc2Cl)cc1 [Compound D20]	72.5%	82.5%	99.5%	98.5%	96%	96%	77.5%	55%	90%	67.5%	98.5%	80%	85%	82.5%	87.5%	94.5%	99%	95%	72.5%	77.5%	pest or weed control at 280 g/ha ([4]; 336 h, 14 DAA): 97.5%; pest or weed control at 560 g/ha ([4]; 336 h, 14 DAA): 96%; pest or weed control at 280 g/ha ([4]; 504 h, 21 DAA): 57.5%; TGA Data (rate of weight loss, volatility) [5]: 0.0112 µg/min; pest or weed control at 280 g/ha ([6]; 168 h, 7 DAA): 77.5%; pest or weed control at 560 g/ha ([6]; 168 h, 7 DAA): 75%; pest or weed control at 280 g/ha ([6]; 336 h, 14 DAA): 88.9%; pest or weed control at 560 g/ha ([6]; 336 h, 14 DAA): 90.3%; pest or weed control at 280 g/ha ([6]; 504 h, 21 DAA): 90.2%; pest or weed control at 560 g/ha ([6]; 504 h, 21 DAA): 91.2%; pest or weed control at 280 g/ha ([7]; 168 h, 7 DAA): 80%; pest or weed control at 560 g/ha ([7]; 168 h, 7 DAA): 77.5%; pest or weed control at 280 g/ha ([7]; 336 h, 14 DAA): 70%; pest or weed control at 280 g/ha ([7]; 504 h, 21 DAA): 100%; pest or weed control at 560 g/ha ([7]; 504 h, 21 DAA): 100%
O=C(COc1ccc(Cl)cc1Cl)Nc1ccccn1 [Compound D28]	82.5%	82.5%	99.5%	97.5%	99.5%	98.5%	77.5%	72.5%	96.5%	97.5%	100%	100%	80%	77.5%	97%	96.5%	100%	96.5%	80%	98%	pest or weed control at 280 g/ha ([4]; 336 h, 14 DAA): 96%; pest or weed control at 560 g/ha ([4]; 336 h, 14 DAA): 87.5%; pest or weed control at 280 g/ha ([4]; 504 h, 21 DAA): 81.5%; pest or weed control at 560 g/ha ([4]; 504 h, 21 DAA): 100%; TGA Data (rate of weight loss, volatility) [5]: 0.06 µg/min; pest or weed control at 280 g/ha ([6]; 168 h, 7 DAA): 79%; pest or weed control at 560 g/ha ([6]; 168 h, 7 DAA): 83.1%; pest or weed control at 280 g/ha ([6]; 336 h, 14 DAA): 95.8%; pest or weed control at 560 g/ha ([6]; 336 h, 14 DAA): 95.8%; pest or weed control at 280 g/ha ([6]; 504 h, 21 DAA): 96.2%; pest or weed control at 560 g/ha ([6]; 504 h, 21 DAA): 99%; pest or weed control at 280 g/ha ([7]; 168 h, 7 DAA): 75%; pest or weed control at 560 g/ha ([7]; 168 h, 7 DAA): 85%; pest or weed control at 280 g/ha ([7]; 336 h, 14 DAA): 90%; pest or weed control at 560 g/ha ([7]; 336 h, 14 DAA): 100%; pest or weed control at 280 g/ha ([7]; 504 h, 21 DAA): 100%; pest or weed control at 560 g/ha ([7]; 504 h, 21 DAA): 100%
C=CCONC(=O)COc1ccc(Cl)cc1Cl [Compound D33]	82.5%	77.5%	99.5%	100%	99.5%	97.5%	85%	92.5%	98.5%	99.5%	100%	100%	82.5%	46.5%	98%	92.5%	96.5%	99%	92.5%	92%	pest or weed control at 280 g/ha ([4]; 336 h, 14 DAA): 92.5%; pest or weed control at 560 g/ha ([4]; 336 h, 14 DAA): 92.5%; pest or weed control at 280 g/ha ([4]; 504 h, 21 DAA): 95%; pest or weed control at 560 g/ha ([4]; 504 h, 21 DAA): 92.5%; TGA Data (rate of weight loss, volatility) [5]: 0.34 µg/min; pest or weed control at 280 g/ha ([6]; 168 h, 7 DAA): 85.7%; pest or weed control at 560 g/ha ([6]; 168 h, 7 DAA): 77.7%; pest or weed control at 280 g/ha ([6]; 336 h, 14 DAA): 96.9%; pest or weed control at 560 g/ha ([6]; 336 h, 14 DAA): 94.9%; pest or weed control at 280 g/ha ([6]; 504 h, 21 DAA): 98.2%; pest or weed control at 560 g/ha ([6]; 504 h, 21 DAA): 97.8%; pest or weed control at 280 g/ha ([7]; 168 h, 7 DAA): 86%; pest or weed control at 560 g/ha ([7]; 168 h, 7 DAA): 80%; pest or weed control at 280 g/ha ([7]; 336 h, 14 DAA): 96%; pest or weed control at 560 g/ha ([7]; 336 h, 14 DAA): 90%; pest or weed control at 280 g/ha ([7]; 504 h, 21 DAA): 100%; pest or weed control at 560 g/ha ([7]; 504 h, 21 DAA): 100%
